Reference: PubChem BioAssay AID248 (DTP/NCI, 2004)
Where “and” joins values, the source holds several entries; their conditions need not be identical. Equal entries are not always repeated. Inconclusive results and toxic doses are left out. No stated cut-off is given here; in the data, active means T/C of 150% or more; inactive means T/C below 125%. Peptide text beside a SMILES is read from it. * marks the point of attachment. Cbz = O=C(OCc1ccccc1)*

System: L1210 leukemia ip in BDF1 mice, survival T/C
Assay: NCI In Vivo Anticancer Drug Screen. Data for tumor model L1210 Leukemia (intraperitoneal) in B6D2F1 (BDF1) mice
Details: endpoint: mean survival time, higher = longer survival
Procedure, shortened: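 Read-out is survival time, reported as the treated-group measurement over the vehicle-control measurement.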

[1] = dose: 100.0 mg/kg/injection, schedule: Q01DX009 (ip), vehicle: Klucel (hydroxypropylcellulose) (HPC)
[2] = dose: 200.0 mg/kg/injection, schedule: Q01DX009 (ip), vehicle: Klucel (hydroxypropylcellulose) (HPC)
[3] = dose: 400.0 mg/kg/injection, schedule: Q01DX009 (ip), vehicle: Klucel (hydroxypropylcellulose) (HPC)
[4] = dose: 100.0 mg/kg/injection, schedule: Q04DX003 (ip), vehicle: saline with Tween-80
[5] = dose: 200.0 mg/kg/injection, schedule: Q04DX003 (ip), vehicle: saline with Tween-80
[6] = dose: 400.0 mg/kg/injection, schedule: Q04DX003 (ip), vehicle: saline with Tween-80
[7] = dose: 100.0 mg/kg/injection, schedule: Q04DX002 (ip), vehicle: Klucel (hydroxypropylcellulose) (HPC)
[8] = dose: 200.0 mg/kg/injection, schedule: Q04DX002 (ip), vehicle: Klucel (hydroxypropylcellulose) (HPC)
[9] = dose: 400.0 mg/kg/injection, schedule: Q04DX002 (ip), vehicle: Klucel (hydroxypropylcellulose) (HPC)
[10] = dose: 100.0 mg/kg/injection, schedule: Q04DX002 (ip), vehicle: saline with Tween-80
[11] = dose: 100.0 mg/kg/injection, schedule: Q01DX009 (ip), vehicle: saline with Tween-80
[12] = dose: 400.0 mg/kg/injection, schedule: Q01DX009 (ip), vehicle: saline with Tween-80
[13] = dose: 100.0 mg/kg/injection, schedule: Q01DX001 (ip), vehicle: saline
[14] = dose: 200.0 mg/kg/injection, schedule: Q01DX001 (ip), vehicle: saline
[15] = dose: 400.0 mg/kg/injection, schedule: Q01DX001 (ip), vehicle: saline

Measured: T/C

Clc1ccc(C2SCCS2)c(Cl)c1
inactive: [1] 105 % of control | [2] 108 % of control | [3] 124 % of control

O=[N+]([O-])c1cc(Cl)ccc1O
inactive: [4] 91 % of control | [5] 107 % of control | [6] 96 % of control

Cc1cccc(NC(=O)C2CCCCC2C(=O)O)c1C (centres undefined)
inactive: [7] 100 % of control | [8] 107 % of control | [9] 92 % of control

CCOC(=O)C1CC1(C)Br (centres undefined)
inactive: dose: 3.13 mg/kg/injection, schedule: Q04DX002 (ip), vehicle: saline with Tween-80 97 % of control | dose: 6.25 mg/kg/injection, schedule: Q04DX002 (ip), vehicle: saline with Tween-80 87 % of control | dose: 25.0 mg/kg/injection, schedule: Q04DX002 (ip), vehicle: saline with Tween-80 87 % of control | [10] 90 % of control

CC(=O)NC1CCCC2CCCCC21 (centres undefined)
inactive: [11] 94 % of control and 99 % of control | [4] 93 % of control | dose: 200.0 mg/kg/injection, schedule: Q01DX009 (ip), vehicle: saline with Tween-80 109 % of control and 100 % of control | [5] 94 % of control | [12] 103 % of control | [6] 94 % of control

CCN1/C(=C/C=C/C=C/c2sc3ccccc3[n+]2CC)Sc2ccccc21
inactive: dose: 0.04 mg/kg/injection, schedule: Q01DX009 (ip), vehicle: saline 110 % of control | dose: 0.08 mg/kg/injection, schedule: Q01DX009 (ip), vehicle: saline 93 % of control | dose: 0.09 mg/kg/injection, schedule: Q01DX009 (ip), vehicle: saline 117 % of control | dose: 0.09 mg/kg/injection, schedule: Q04DX003 (ip), vehicle: saline 102 % of control | dose: 0.19 mg/kg/injection, schedule: Q01DX009 (ip), vehicle: saline 122 % of control | dose: 0.19 mg/kg/injection, schedule: Q04DX002 (ip), vehicle: saline 102 % of control | dose: 0.19 mg/kg/injection, schedule: Q04DX003 (ip), vehicle: saline 102 % of control | dose: 0.32 mg/kg/injection, schedule: Q01DX009 (ip), vehicle: saline 88 % of control | dose: 0.37 mg/kg/injection, schedule: Q01DX001 (ip), vehicle: saline 95 % of control | dose: 0.38 mg/kg/injection, schedule: Q01DX009 (ip), vehicle: saline 96 % of control | dose: 0.38 mg/kg/injection, schedule: Q04DX002 (ip), vehicle: saline 103 % of control | dose: 0.38 mg/kg/injection, schedule: Q04DX003 (ip), vehicle: saline 105 % of control | dose: 0.39 mg/kg/injection, schedule: Q01DX009 (ip), vehicle: saline 109 % of control | dose: 0.62 mg/kg/injection, schedule: Q01DX001 (ip), vehicle: other 105 % of control | dose: 0.75 mg/kg/injection, schedule: Q01DX001 (ip), vehicle: saline 102 % of control | dose: 0.76 mg/kg/injection, schedule: Q04DX002 (ip), vehicle: saline 107 % of control | dose: 0.76 mg/kg/injection, schedule: Q04DX003 (ip), vehicle: saline 103 % of control | dose: 0.8 mg/kg/injection, schedule: Q01DX001 (ip), vehicle: saline 105 % of control | dose: 1.25 mg/kg/injection, schedule: Q01DX001 (ip), vehicle: other 110 % of control | dose: 1.5 mg/kg/injection, schedule: Q01DX001 (ip), vehicle: saline 105 % of control | dose: 1.5 mg/kg/injection, schedule: Q04DX002 (ip), vehicle: saline 110 % of control | dose: 2.5 mg/kg/injection, schedule: Q01DX001 (ip), vehicle: other 115 % of control | dose: 3.0 mg/kg/injection, schedule: Q01DX001 (ip), vehicle: saline 110 % of control | dose: 5.0 mg/kg/injection, schedule: Q01DX001 (ip), vehicle: other 107 % of control

CC(CCc1ccccc1)N(C)C(=O)CNC(=O)CN1C(=O)c2ccccc2C1=O (centres undefined)
inactive: [13] 96 % of control | [14] 92 % of control

O=[N+]([O-])c1ccc(Sc2ccsc2)c([N+](=O)[O-])c1
inactive: [13] 101 % of control | [14] 98 % of control

CCOC(=O)CCCc1c(C)[nH]c2ccc(Cl)cc12
inactive: [7] 98 % of control | [8] 102 % of control | [9] 91 % of control

CC(=O)Nc1ccc(/C=C(\C#N)c2cccc3ccccc23)cc1
inactive: [1] 90 % of control | [2] 87 % of control | [3] 88 % of control

Oc1ccc2cc(Br)ccc2c1-c1c(O)ccc2cc(Br)ccc12
inactive: [10] 97 % of control | dose: 200.0 mg/kg/injection, schedule: Q04DX002 (ip), vehicle: saline with Tween-80 94 % of control | dose: 400.0 mg/kg/injection, schedule: Q04DX002 (ip), vehicle: saline with Tween-80 87 % of control

COC(=O)C(CC(C)C)NC(=O)C(Cc1ccccc1)NC(=O)C(CO)NC(=O)OCc1ccccc1 (stereo not drawn) (Cbz-Ser-Phe-Leu-OMe; configuration not given here)
inactive: [13] 93 % of control | [14] 93 % of control | [15] 94 % of control

CCCc1nc2c(nc1C)C(=O)C=CC2=O
inactive: dose: 9.5 mg/kg/injection, schedule: Q01DX001 (ip), vehicle: other 98 % of control

CCOc1ccc2nc(S(N)(=O)=O)sc2c1
inactive: dose: 100.0 mg/kg/injection, schedule: Q01DX Z (ip), vehicle: saline 100 % of control | dose: 200.0 mg/kg/injection, schedule: Q01DX Z (ip), vehicle: saline 97 % of control | dose: 400.0 mg/kg/injection, schedule: Q01DX Z (ip), vehicle: saline 111 % of control

CNCC(C)CN1CCCCCc2ccccc21 (centres undefined)
inactive: dose: 3.12 mg/kg/injection, schedule: Q01DX009 (ip), vehicle: saline 100 % of control | dose: 6.25 mg/kg/injection, schedule: Q01DX009 (ip), vehicle: saline 93 % of control | dose: 12.5 mg/kg/injection, schedule: Q01DX009 (ip), vehicle: saline 100 % of control | dose: 25.0 mg/kg/injection, schedule: Q01DX009 (ip), vehicle: saline 97 % of control | dose: 50.0 mg/kg/injection, schedule: Q01DX009 (ip), vehicle: saline 104 % of control

CN1CCCCC1c1ccccc1 (centres undefined)
inactive: dose: 75.0 mg/kg/injection, schedule: Q01DX001 (ip), vehicle: saline 103 % of control

Cc1ccc(S(=O)(=O)OC2COC3C(OS(=O)(=O)c4ccc(C)cc4)COC23)cc1 (centres undefined)
inactive: [13] 93 % of control | dose: 100.0 mg/kg/injection, schedule: Q04DX003 (ip), vehicle: DMSO 103 % of control | [14] 96 % of control | dose: 200.0 mg/kg/injection, schedule: Q04DX003 (ip), vehicle: DMSO 97 % of control | [15] 93 % of control | dose: 400.0 mg/kg/injection, schedule: Q04DX003 (ip), vehicle: DMSO 111 % of control

O=c1[nH]c(=O)n(C2OC(CO)C(O)C2O)cc1CCC(F)(F)F (centres undefined)
inactive: dose: 50.0 mg/kg/injection, schedule: Q01DX005 (ip), vehicle: saline 94 % of control | dose: 100.0 mg/kg/injection, schedule: Q01DX005 (ip), vehicle: saline 109 % of control | dose: 200.0 mg/kg/injection, schedule: Q01DX005 (ip), vehicle: saline 98 % of control

N=C(N)SCCN1CCCCC1
inactive: dose: 75.0 mg/kg/injection, schedule: Q01DX001 (ip), vehicle: acetone 102 % of control | dose: 150.0 mg/kg/injection, schedule: Q01DX001 (ip), vehicle: acetone 100 % of control

O=C(Nc1ccccc1)Nc1cc(C(F)(F)F)ccc1Cl
inactive: [11] 86 % of control | [4] 91 % of control | [5] 90 % of control | [12] 92 % of control | [6] 95 % of control

COC(C)c1ccccc1 (centres undefined)
inactive: dose: 103.0 mg/kg/injection, schedule: Q01DX Z (ip), vehicle: methylcellulose (MC) 91 % of control | dose: 155.0 mg/kg/injection, schedule: Q01DX Z (ip), vehicle: methylcellulose (MC) 96 % of control | dose: 233.0 mg/kg/injection, schedule: Q01DX Z (ip), vehicle: methylcellulose (MC) 96 % of control | dose: 350.0 mg/kg/injection, schedule: Q01DX Z (ip), vehicle: methylcellulose (MC) 102 % of control
